Measured values from PubChem BioAssay AID1259407 (Chemical Carcinogenesis Research Information System (CCRIS), 2018).
Calls of active or inactive are those of the source. The rule behind the calls is not given here.

Test system: CCRIS mutagenicity, Ames/micronucleus/aberration tests
Assay: CCRIS mutagenicity studies
[1] = Test System: AMES SALMONELLA TYPHIMURIUM, Strain/Indicator: TA98, Metabolic Activation: NONE, Method: PREINCUBATION
[2] = Test System: AMES SALMONELLA TYPHIMURIUM, Strain/Indicator: TA98, Metabolic Activation: NONE, Method: STANDARD PLATE
[3] = Test System: AMES SALMONELLA TYPHIMURIUM, Strain/Indicator: TA100, Metabolic Activation: HAMSTER, LIVER, S-9, PCB, Method: PREINCUBATION
[4] = Test System: AMES SALMONELLA TYPHIMURIUM, Strain/Indicator: TA100, Metabolic Activation: NONE, Method: PREINCUBATION
[5] = Test System: AMES SALMONELLA TYPHIMURIUM, Strain/Indicator: TA100, Metabolic Activation: NONE, Method: STANDARD PLATE
[6] = Test System: AMES SALMONELLA TYPHIMURIUM, Strain/Indicator: TA100, Metabolic Activation: RAT, LIVER, S-9, PCB, Method: PREINCUBATION
[7] = Test System: AMES SALMONELLA TYPHIMURIUM, Strain/Indicator: TA102, Metabolic Activation: NONE, Method: STANDARD PLATE
[8] = Test System: AMES SALMONELLA TYPHIMURIUM, Strain/Indicator: TA98, Metabolic Activation: HAMSTER, LIVER, S-9, AROCLOR 1254 (10%), Method: PREINCUBATION
[9] = Test System: AMES SALMONELLA TYPHIMURIUM, Strain/Indicator: TA98, Metabolic Activation: RAT, LIVER, S-9, AROCLOR 1254 (10%), Method: PREINCUBATION
[10] = Test System: AMES SALMONELLA TYPHIMURIUM, Strain/Indicator: TA100, Metabolic Activation: HAMSTER, LIVER, S-9, AROCLOR 1254 (10%), Method: PREINCUBATION
[11] = Test System: AMES SALMONELLA TYPHIMURIUM, Strain/Indicator: TA100, Metabolic Activation: RAT, LIVER, S-9, AROCLOR 1254 (10%), Method: PREINCUBATION
[12] = Test System: AMES SALMONELLA TYPHIMURIUM, Strain/Indicator: TA1535, Metabolic Activation: HAMSTER, LIVER, S-9, AROCLOR 1254 (10%), Method: PREINCUBATION
[13] = Test System: AMES SALMONELLA TYPHIMURIUM, Strain/Indicator: TA1535, Metabolic Activation: NONE, Method: PREINCUBATION
[14] = Test System: AMES SALMONELLA TYPHIMURIUM, Strain/Indicator: TA1535, Metabolic Activation: RAT, LIVER, S-9, AROCLOR 1254 (10%), Method: PREINCUBATION
[15] = Test System: AMES SALMONELLA TYPHIMURIUM, Strain/Indicator: TA1537, Metabolic Activation: HAMSTER, LIVER, S-9, AROCLOR 1254 (10%), Method: PREINCUBATION
[16] = Test System: AMES SALMONELLA TYPHIMURIUM, Strain/Indicator: TA1537, Metabolic Activation: NONE, Method: PREINCUBATION
[17] = Test System: AMES SALMONELLA TYPHIMURIUM, Strain/Indicator: TA1537, Metabolic Activation: RAT, LIVER, S-9, AROCLOR 1254 (10%), Method: PREINCUBATION

CCCCC1C(=O)N(c2ccccc2)N(c2ccc(O)cc2)C1=O (stereo not drawn)
mutagenic call (Test System: AMES SALMONELLA TYPHIMURIUM, Strain/Indicator: TA97A, Metabolic Activation: NONE, Method: STANDARD PLATE): inactive; negative
mutagenic call (Test System: AMES SALMONELLA TYPHIMURIUM, Strain/Indicator: TA97A, Metabolic Activation: RAT LIVER S-9, PHENOBARBITAL, Method: STANDARD PLATE): inactive; negative
mutagenic call (Test System: AMES SALMONELLA TYPHIMURIUM, Strain/Indicator: TA98, Metabolic Activation: GUINEA PIG, LIVER, S-9, PCB, Method: PREINCUBATION): inactive; negative
mutagenic call (Test System: AMES SALMONELLA TYPHIMURIUM, Strain/Indicator: TA98, Metabolic Activation: HAMSTER, LIVER, S-9, PCB, Method: PREINCUBATION): inactive; negative
mutagenic call (Test System: AMES SALMONELLA TYPHIMURIUM, Strain/Indicator: TA98, Metabolic Activation: MOUSE, LIVER, S-9, PCB, Method: PREINCUBATION): inactive; negative
mutagenic call [1]: inactive; negative
mutagenic call [2]: inactive; negative
mutagenic call (Test System: AMES SALMONELLA TYPHIMURIUM, Strain/Indicator: TA98, Metabolic Activation: RAT LIVER S-9, PHENOBARBITAL, Method: STANDARD PLATE): inactive; negative
mutagenic call (Test System: AMES SALMONELLA TYPHIMURIUM, Strain/Indicator: TA98, Metabolic Activation: RAT, LIVER, S-9, PCB, Method: PREINCUBATION): inactive; negative
mutagenic call (Test System: AMES SALMONELLA TYPHIMURIUM, Strain/Indicator: TA100, Metabolic Activation: GUINEA PIG, LIVER, S-9, PCB, Method: PREINCUBATION): inactive; negative
mutagenic call [3]: inactive; negative
mutagenic call (Test System: AMES SALMONELLA TYPHIMURIUM, Strain/Indicator: TA100, Metabolic Activation: MOUSE, LIVER, S-9, PCB, Method: PREINCUBATION): inactive; negative
mutagenic call [4]: inactive; negative
mutagenic call [5]: inactive; negative
mutagenic call (Test System: AMES SALMONELLA TYPHIMURIUM, Strain/Indicator: TA100, Metabolic Activation: RAT LIVER S-9 PHENOBARBITAL, Method: STANDARD PLATE): inactive; negative
mutagenic call [6]: active; positive
mutagenic call [7]: inactive; negative
mutagenic call (Test System: AMES SALMONELLA TYPHIMURIUM, Strain/Indicator: TA102, Metabolic Activation: RAT LIVER S-9, PHENOBARBITAL, Method: STANDARD PLATE): inactive; negative

Cc1c(N)nc([C@H](CC(N)=O)NC[C@H](N)C(N)=O)nc1C(=O)N[C@H](C(=O)N[C@H](C)[C@@H](O)[C@H](C)C(=O)N[C@H](C(=O)NCCc1nc(-c2nc(C(=O)NCCCN[C@@H](C)c3ccccc3)cs2)cs1)[C@@H](C)O)[C@@H](O[C@@H]1O[C@@H](CO)[C@@H](O)[C@H](O)[C@@H]1O[C@H]1O[C@H](CO)[C@@H](O)[C@H](OC(N)=O)[C@@H]1O)c1cnc[nH]1
mutagenic call [7]: active; positive
mutagenic call (Test System: AMES SALMONELLA TYPHIMURIUM, Strain/Indicator: TA1537, Metabolic Activation: NONE, Method: STANDARD PLATE): inactive; negative

CC1(C)CC2=C(C=O)[C@]3(C=O)C[C@]3(C)[C@@H](O)[C@@H]2C1
mutagenic call [2]: inactive; negative
mutagenic call [5]: inactive; negative
mutagenic call (Test System: AMES SALMONELLA TYPHIMURIUM, Strain/Indicator: TA2637, Metabolic Activation: NONE, Method: STANDARD PLATE): inactive; negative

OCC(CBr)(CBr)CBr
mutagenic call [8]: inactive; negative
mutagenic call [1]: inactive; negative
mutagenic call [9]: inactive; negative
mutagenic call [10]: inactive; negative
mutagenic call [4]: inactive; negative
mutagenic call [11]: inactive; negative
mutagenic call [12]: active; positive
mutagenic call [13]: inactive; negative
mutagenic call [14]: inactive; negative
mutagenic call [15]: inactive; negative
mutagenic call [16]: inactive; negative
mutagenic call [17]: inactive; negative

Clc1c(Cl)c(Br)c2c(c1Cl)-c1nc-2nc2[n-]c(nc3nc(nc4[n-]c(n1)c1c(Cl)c(Br)c(Cl)c(Br)c41)-c1c(Cl)c(Cl)c(Br)c(Cl)c1-3)c1c(Br)c(Cl)c(Br)c(Cl)c21.[Cu+2]
mutagenic call [8]: active; positive
mutagenic call [1]: inactive; negative
mutagenic call [9]: active; positive
mutagenic call [10]: inactive; negative
mutagenic call [4]: inactive; negative
mutagenic call [11]: inactive; negative
mutagenic call [12]: inactive; negative
mutagenic call [13]: inactive; negative
mutagenic call [14]: inactive; negative
mutagenic call [15]: inactive; negative
mutagenic call [16]: inactive; negative
mutagenic call [17]: active; positive

CC(C)[C@@](O)(C(=O)OC[C@@H]1CCN2CCC[C@H]12)[C@@H](C)O
mutagenic call [3]: inactive; negative
mutagenic call [6]: inactive; negative

CC12OOC1(C)c1ccccc1O2 (stereo not drawn)
mutagenic call [4]: active; positive
mutagenic call (Test System: AMES SALMONELLA TYPHIMURIUM, Strain/Indicator: TA2638, Metabolic Activation: NONE, Method: PREINCUBATION): inactive; negative

CC1(C)C2CC3OC3(C)C1C2 (stereo not drawn)
mutagenic call [5]: inactive; negative
mutagenic call (Test System: AMES SALMONELLA TYPHIMURIUM, Strain/Indicator: TA100, Metabolic Activation: RAT, LIVER, S-9, AROCLOR 1254, Method: STANDARD PLATE): inactive; negative
mutagenic call (Test System: AMES SALMONELLA TYPHIMURIUM, Strain/Indicator: TA1535, Metabolic Activation: NONE, Method: STANDARD PLATE): inactive; negative
mutagenic call (Test System: AMES SALMONELLA TYPHIMURIUM, Strain/Indicator: TA1535, Metabolic Activation: RAT, LIVER, S-9, AROCLOR 1254, Method: STANDARD PLATE): inactive; negative
mutagenic call (Test System: UDS RAT HEPATOCYTES, Strain/Indicator: THY INCORP, Metabolic Activation: NONE): inactive; negative

CN(CC(O)CO)N=O (stereo not drawn)
mutagenic call (Test System: AMES SALMONELLA TYPHIMURIUM, Strain/Indicator: TA100, Metabolic Activation: HAMSTER, LIVER, S-9, 3-METHYLCHOLANTHRENE, Method: PREINCUBATION): active; positive
mutagenic call (Test System: AMES SALMONELLA TYPHIMURIUM, Strain/Indicator: TA100, Metabolic Activation: HAMSTER, LIVER, S-9, PHENOBARBITAL, Method: PREINCUBATION): active; positive
mutagenic call (Test System: AMES SALMONELLA TYPHIMURIUM, Strain/Indicator: TA100, Metabolic Activation: HAMSTER, LIVER, S-9, Method: PREINCUBATION): active; positive
mutagenic call (Test System: AMES SALMONELLA TYPHIMURIUM, Strain/Indicator: TA100, Metabolic Activation: MOUSE, LIVER, S-9, 3-METHYLCHOLANTHRENE, Method: PREINCUBATION): active; positive
mutagenic call (Test System: AMES SALMONELLA TYPHIMURIUM, Strain/Indicator: TA100, Metabolic Activation: MOUSE, LIVER, S-9, PHENOBARBITAL, Method: PREINCUBATION): active; positive
mutagenic call (Test System: AMES SALMONELLA TYPHIMURIUM, Strain/Indicator: TA100, Metabolic Activation: MOUSE, LIVER, S-9, Method: PREINCUBATION): active; positive
mutagenic call [4]: inactive; negative
mutagenic call (Test System: AMES SALMONELLA TYPHIMURIUM, Strain/Indicator: TA100, Method: PREINCUBATION): active; positive

CC(=O)OCc1c2ccccc2cc2c1ccc1ccccc12
mutagenic call [2]: active; positive
mutagenic call [5]: active; positive

Cl/C=C(\Cl)SCc1ccccc1
mutagenic call [4]: inactive; negative
mutagenic call (Test System: AMES SALMONELLA TYPHIMURIUM, Strain/Indicator: TA100, Metabolic Activation: RAT, LIVER, S-9, AROCLOR 1254, Method: PREINCUBATION): active; positive
